Measurements: PubChem BioAssay AID1745844 (Carcinogenic Potency Database (CPDB), 2022)
The source made the active and inactive calls. No rule for the calls is given here.

Tested on: rodent lifetime carcinogenesis bioassay, tumor incidence TD50
Assay: chronic cancer bioassays in animals – CPDB, compiled studies (AID 1745844)

## Cc1ccc2c(c1[N+](=O)[O-])C(=O)c1ccccc1C2=O
mouse, strain B6C3F1, females, in feed, site: any site (literature study), lesion: several types, types named in the paper, dosed 49 weeks, study length 49 weeks
  TD50: 1.76 mg/kg/day
mouse, strain B6C3F1, females, in feed, site: lung, lesion: alveolar/bronchiolar adenoma + alveolar/bronchiolar carcinoma, dosed 49 weeks, study length 49 weeks
  TD50: 97.3 mg/kg/day
mouse, strain B6C3F1, females, in feed, site: subcutaneous tissue, lesion: hemangiosarcoma, dosed 49 weeks, study length 49 weeks
  TD50: 1.88 mg/kg/day
mouse, strain B6C3F1, males, in feed, site: any site (literature study), lesion: several types, types named in the paper, dosed 46 weeks, study length 46 weeks
  TD50: 1.02 mg/kg/day
mouse, strain B6C3F1, males, in feed, site: lung, lesion: alveolar/bronchiolar adenoma + alveolar/bronchiolar carcinoma, dosed 46 weeks, study length 46 weeks
  TD50: 45.5 mg/kg/day
mouse, strain B6C3F1, males, in feed, site: subcutaneous tissue, lesion: hemangiosarcoma, dosed 46 weeks, study length 46 weeks
  TD50: 1.34 mg/kg/day
rat, strain Fischer 344, females, in feed, site: any site (literature study), lesion: several types, types named in the paper, dosed 78 weeks, study length 109 weeks
  TD50: 47.1 mg/kg/day
rat, strain Fischer 344, females, in feed, site: liver, lesion: hepatocellular adenoma + hepatocellular carcinoma + neoplastic nodule, dosed 78 weeks, study length 109 weeks
  TD50: 324 mg/kg/day
rat, strain Fischer 344, females, in feed, site: liver, lesion: hepatocellular carcinoma + neoplastic nodule, dosed 78 weeks, study length 109 weeks
  TD50: 324 mg/kg/day
rat, strain Fischer 344, females, in feed, site: liver, lesion: hepatocellular carcinoma, dosed 78 weeks, study length 109 weeks
  TD50: 547 mg/kg/day
rat, strain Fischer 344, females, in feed, site: pituitary gland, lesion: adenoma, dosed 78 weeks, study length 109 weeks
  TD50: 63.4 mg/kg/day
rat, strain Fischer 344, females, in feed, site: stomach, lesion: squamous-cell carcinoma, dosed 78 weeks, study length 109 weeks
  TD50: 507 mg/kg/day
rat, strain Fischer 344, females, in feed, site: subcutaneous tissue, lesion: fibroma, dosed 78 weeks, study length 109 weeks
  TD50: 131 mg/kg/day
rat, strain Fischer 344, females, in feed, site: urinary bladder, lesion: papilloma, NOS + sarcoma, NOS + transitional-cell papilloma, dosed 78 weeks, study length 109 weeks
  TD50: 224 mg/kg/day
rat, strain Fischer 344, males, in feed, site: any site (literature study), lesion: several types, types named in the paper, dosed 78 weeks, study length 109 weeks
  TD50: 31.9 mg/kg/day
rat, strain Fischer 344, males, in feed, site: liver, lesion: hepatocellular adenoma + hepatocellular carcinoma + neoplastic nodule, dosed 78 weeks, study length 109 weeks
  TD50: 48.8 mg/kg/day
rat, strain Fischer 344, males, in feed, site: liver, lesion: hepatocellular carcinoma + neoplastic nodule, dosed 78 weeks, study length 109 weeks
  TD50: 48.8 mg/kg/day
rat, strain Fischer 344, males, in feed, site: liver, lesion: hepatocellular carcinoma, dosed 78 weeks, study length 109 weeks
  TD50: 89.2 mg/kg/day
rat, strain Fischer 344, males, in feed, site: liver, lesion: neoplastic nodule, dosed 78 weeks, study length 109 weeks
  TD50: 133 mg/kg/day
rat, strain Fischer 344, males, in feed, site: subcutaneous tissue, lesion: fibroma, dosed 78 weeks, study length 109 weeks
  TD50: 25.8 mg/kg/day

## CC(C)[N+](=O)[O-]
rat, strain Sprague-Dawley, females, inhaled, site: any site (literature study), lesion: benign tumor, dosed 52 weeks, study length 52 weeks
  carcinogen call: negative (inactive)
rat, strain Sprague-Dawley, females, inhaled, site: any site (literature study), lesion: benign tumor, dosed 52 weeks, study length 95 weeks
  carcinogen call: negative (inactive)
rat, strain Sprague-Dawley, females, inhaled, site: any site (literature study), lesion: benign tumor, dosed 95 weeks, study length 95 weeks
  carcinogen call: negative (inactive)
rat, strain Sprague-Dawley, females, inhaled, site: any site (literature study), lesion: malignant tumor, dosed 52 weeks, study length 52 weeks
  carcinogen call: negative (inactive)
rat, strain Sprague-Dawley, females, inhaled, site: any site (literature study), lesion: malignant tumor, dosed 52 weeks, study length 95 weeks
  carcinogen call: negative (inactive)
rat, strain Sprague-Dawley, females, inhaled, site: any site (literature study), lesion: malignant tumor, dosed 95 weeks, study length 95 weeks
  carcinogen call: negative (inactive)
rat, strain Sprague-Dawley, females, inhaled, site: liver, lesion: one or several types, types not named, dosed 52 weeks, study length 52 weeks
  carcinogen call: negative (inactive)
rat, strain Sprague-Dawley, females, inhaled, site: liver, lesion: one or several types, types not named, dosed 52 weeks, study length 95 weeks
  carcinogen call: negative (inactive)
rat, strain Sprague-Dawley, females, inhaled, site: liver, lesion: one or several types, types not named, dosed 95 weeks, study length 95 weeks
  TD50: 293 mg/kg/day (inactive)
rat, strain Sprague-Dawley, males, inhaled, site: any site (literature study), lesion: benign tumor, dosed 52 weeks, study length 52 weeks
  TD50: 9.06 mg/kg/day (inactive)
rat, strain Sprague-Dawley, males, inhaled, site: any site (literature study), lesion: benign tumor, dosed 52 weeks, study length 95 weeks
  TD50: 7.78 mg/kg/day (inactive)
rat, strain Sprague-Dawley, males, inhaled, site: any site (literature study), lesion: benign tumor, dosed 95 weeks, study length 95 weeks
  carcinogen call: negative (inactive)
rat, strain Sprague-Dawley, males, inhaled, site: any site (literature study), lesion: malignant tumor, dosed 52 weeks, study length 52 weeks
  carcinogen call: negative (inactive)
rat, strain Sprague-Dawley, males, inhaled, site: any site (literature study), lesion: malignant tumor, dosed 52 weeks, study length 95 weeks
  TD50: 23.6 mg/kg/day (inactive)
rat, strain Sprague-Dawley, males, inhaled, site: any site (literature study), lesion: malignant tumor, dosed 95 weeks, study length 95 weeks
  carcinogen call: negative (inactive)
rat, strain Sprague-Dawley, males, inhaled, site: liver, lesion: angioma, dosed 52 weeks, study length 95 weeks
  carcinogen call: negative (inactive)
rat, strain Sprague-Dawley, males, inhaled, site: liver, lesion: angioma, dosed 95 weeks, study length 95 weeks
  carcinogen call: negative (inactive)
rat, strain Sprague-Dawley, males, inhaled, site: liver, lesion: one or several types, types not named, dosed 52 weeks, study length 52 weeks
  carcinogen call: negative (inactive)

## CCOc1ccc(NC(C)=O)cc1[N+](=O)[O-]
mouse, strain B6C3F1, females, in feed, site: any site (literature study), lesion: several types, types named in the paper, dosed 78 weeks, study length 97 weeks
  carcinogen call: negative (inactive)
mouse, strain B6C3F1, females, in feed, site: lung, lesion: alveolar/bronchiolar adenoma + alveolar/bronchiolar carcinoma, dosed 78 weeks, study length 97 weeks
  TD50: 30800 mg/kg/day
mouse, strain B6C3F1, males, in feed, site: any site (literature study), lesion: several types, types named in the paper, dosed 78 weeks, study length 98 weeks
  TD50: 3490 mg/kg/day
mouse, strain B6C3F1, males, in feed, site: liver, lesion: hepatocellular adenoma + hepatocellular carcinoma + neoplastic nodule, dosed 78 weeks, study length 98 weeks
  TD50: 2270 mg/kg/day
mouse, strain B6C3F1, males, in feed, site: liver, lesion: hepatocellular adenoma + hepatocellular carcinoma, dosed 78 weeks, study length 98 weeks
  TD50: 2270 mg/kg/day
rat, strain Fischer 344, females, in feed, site: any site (literature study), lesion: several types, types named in the paper, dosed 78 weeks, study length 106 weeks
  carcinogen call: negative (inactive)
rat, strain Fischer 344, females, in feed, site: liver, lesion: hepatocellular adenoma + hepatocellular carcinoma + neoplastic nodule, dosed 78 weeks, study length 106 weeks
  TD50: 6240 mg/kg/day
rat, strain Fischer 344, males, in feed, site: any site (literature study), lesion: several types, types named in the paper, dosed 78 weeks, study length 105 weeks
  carcinogen call: negative (inactive)

## Cc1ccc(/C(=C\CN2CCCC2)c2ccccn2)cc1
mouse, strain B6C3F1, females, in feed, site: any site (literature study), lesion: benign tumor, dosed 104 weeks, study length 105 weeks
  carcinogen call: negative (inactive)
mouse, strain B6C3F1, females, in feed, site: any site (literature study), lesion: malignant tumor, dosed 104 weeks, study length 105 weeks
  carcinogen call: negative (inactive)
mouse, strain B6C3F1, females, in feed, site: any site (literature study), lesion: several types, types named in the paper, dosed 104 weeks, study length 105 weeks
  carcinogen call: negative (inactive)
mouse, strain B6C3F1, females, in feed, site: liver, lesion: hepatocellular adenoma, dosed 104 weeks, study length 105 weeks
  carcinogen call: negative (inactive)
mouse, strain B6C3F1, females, in feed, site: liver, lesion: hepatocellular carcinoma, dosed 104 weeks, study length 105 weeks
  carcinogen call: negative (inactive)
mouse, strain B6C3F1, females, in feed, site: liver, lesion: several types, types named in the paper, dosed 104 weeks, study length 105 weeks
  carcinogen call: negative (inactive)
mouse, strain B6C3F1, females, in feed, site: lung, lesion: several types, types named in the paper, dosed 104 weeks, study length 105 weeks
  carcinogen call: negative (inactive)
mouse, strain B6C3F1, males, in feed, site: any site (literature study), lesion: benign tumor, dosed 104 weeks, study length 105 weeks
  carcinogen call: negative (inactive)
mouse, strain B6C3F1, males, in feed, site: any site (literature study), lesion: malignant tumor, dosed 104 weeks, study length 105 weeks
  carcinogen call: negative (inactive)
mouse, strain B6C3F1, males, in feed, site: any site (literature study), lesion: several types, types named in the paper, dosed 104 weeks, study length 105 weeks
  carcinogen call: negative (inactive)
mouse, strain B6C3F1, males, in feed, site: liver, lesion: hepatocellular adenoma, dosed 104 weeks, study length 105 weeks
  TD50: 2330 mg/kg/day (inactive)
mouse, strain B6C3F1, males, in feed, site: liver, lesion: hepatocellular carcinoma, dosed 104 weeks, study length 105 weeks
  carcinogen call: negative (inactive)
mouse, strain B6C3F1, males, in feed, site: liver, lesion: several types, types named in the paper, dosed 104 weeks, study length 105 weeks
  TD50: 2750 mg/kg/day (inactive)
mouse, strain B6C3F1, males, in feed, site: lung, lesion: several types, types named in the paper, dosed 104 weeks, study length 105 weeks
  carcinogen call: negative (inactive)
rat, strain Fischer 344, females, in feed, site: any site (literature study), lesion: benign tumor, dosed 103 weeks, study length 104 weeks
  carcinogen call: negative (inactive)
rat, strain Fischer 344, females, in feed, site: any site (literature study), lesion: malignant tumor, dosed 103 weeks, study length 104 weeks
  carcinogen call: negative (inactive)
rat, strain Fischer 344, females, in feed, site: any site (literature study), lesion: several types, types named in the paper, dosed 103 weeks, study length 104 weeks
  carcinogen call: negative (inactive)
rat, strain Fischer 344, females, in feed, site: liver, lesion: hepatocellular adenoma, dosed 103 weeks, study length 104 weeks
  carcinogen call: negative (inactive)
rat, strain Fischer 344, females, in feed, site: liver, lesion: hepatocellular carcinoma, dosed 103 weeks, study length 104 weeks
  carcinogen call: negative (inactive)
rat, strain Fischer 344, males, in feed, site: any site (literature study), lesion: benign tumor, dosed 103 weeks, study length 104 weeks
  TD50: 1170 mg/kg/day (inactive)
rat, strain Fischer 344, males, in feed, site: any site (literature study), lesion: malignant tumor, dosed 103 weeks, study length 104 weeks
  carcinogen call: negative (inactive)
rat, strain Fischer 344, males, in feed, site: any site (literature study), lesion: several types, types named in the paper, dosed 103 weeks, study length 104 weeks
  carcinogen call: negative (inactive)
rat, strain Fischer 344, males, in feed, site: liver, lesion: hepatocellular adenoma, dosed 103 weeks, study length 104 weeks
  carcinogen call: negative (inactive)
rat, strain Fischer 344, males, in feed, site: liver, lesion: hepatocellular carcinoma, dosed 103 weeks, study length 104 weeks
  carcinogen call: negative (inactive)

## CN(C)CCN(Cc1ccco1)c1ccccn1
rat, strain Fischer 344, females, in drinking water, site: liver, lesion: several types, types named in the paper, dosed 94 weeks, study length 130 weeks
  carcinogen call: negative (inactive)
rat, strain Fischer 344, females, in drinking water, site: thyroid follicle, lesion: several types, types named in the paper, dosed 94 weeks, study length 130 weeks
  TD50: 559 mg/kg/day (inactive)
rat, strain Fischer 344, males, in drinking water, site: liver, lesion: several types, types named in the paper, dosed 94 weeks, study length 115 weeks
  carcinogen call: negative (inactive)
